In article PMC7545998, “A snake toxin as a theranostic agent for the type 2 vasopressin receptor” (Theranostics, 2020):

Tested on: Sprague-Dawley rats
Assay: Pharmacodynamics: diuresis and urine osmolality after single i.p. injection
Assay type: in vivo, rat
Set-up: k value of diuresis over time, first phase / k value of diuresis over time, second phase: unit not given here
Conditions: for maximal diuresis: between first and second h post-injection; for half-life of diuresis decrease: mono-exponential
Description: Diuresis was maximal between the first and second h post-injection (pi), with volumes of 29.5, 45.6, 70.9, 67.6 and 79.1 mL/kg/h for the doses of 3, 10, 30, 100 and 356 nmol/kg, respectively (Figure 3C). […] For the highest dose of 356 nmol/kg, the diuresis decreased quickly during the first 4 h and then lasted for four days.
Sprague-Dawley rats are aged between 6 and 12 weeks, between 237 g and 545 g and were use up to 3 times. […] Urine was collected at various times, and centrifuged for 30 min at 20,800 g. Urine osmolality was determined with an osmometer (Knauer, Berlin, Germany). For the pharmacokinetic experiments, a catheter was implanted in the rat jugular vein five days before the experiment. Blood samples of 400 μl were taken at various times under heparin conditions. Blood was centrifuged at 2000 g for 5 min at 4 °C and plasma was frozen at -20 °C.
Sample preparation is described in Table S1. […] The mobile phase consisted of 0.1% formic acid in water (A) and 0.1% formic acid in acetonitrile (B) running in a gradient mode from B 2% to B 100% in 3 min. […] The mass spectrometer was operated in positive ESI and MRM mode. […] A model was selected based on the extravascular (i.p.) route of administration. For the i.p. route, concentration at time zero was assumed to be zero. For each rat, the first concentration below the LLOQ was set at LLOQ/2 for calculation of PK parameters. The area under the plasma concentration versus time curve (AUC) was calculated using the linear trapezoidal method (linear interpolation). When appropriate, the terminal elimination phase of the PK profile was estimated based on the best fit (r^2) using at least the last six observed concentrations. […] The same approach was used to model diuresis over time and two k values were obtained as 0.37774 and 0.02326. Lastly, the PK/PD correlation was achieved after calculating concentrations and diuresis volumes over time based on the equation y = A0*e^-kt where A0 was the computed concentration or diuresis volume at the origin of each phase.

[1] = 356 nmol/kg i.p., bi-exponential analysis
[2] = single i.p. 1 nmol/kg, 0-24 h, n=6
[3] = single i.p. 3 nmol/kg, 0-24 h, n=6
[4] = single i.p. 3 nmol/kg, 24 - 48 h, n=6
[5] = single i.p. 10 nmol/kg, 0-24 h, n=11
[6] = single i.p. 10 nmol/kg, 24 - 48 h, n=11
[7] = single i.p. 30 nmol/kg, 0-24 h, n=11
[8] = single i.p. 30 nmol/kg, 24 - 48 h, n=11
[9] = single i.p. 100 nmol/kg, 0-24 h, n=12
[10] = single i.p. 100 nmol/kg, 24 - 48 h, n=12
[11] = single i.p. 356 nmol/kg, 0-24 h, n=17
[12] = single i.p. 356 nmol/kg, 24 - 48 h, n=17
[13] = single i.p. 356 nmol/kg, 72 h (24-h period), n=12
[14] = single i.p. 356 nmol/kg, 96 h (24-h period), n=12

In the case of mambaquaretin [MQ1], the maximal diuresis (3 nmol/kg i.p.) is reported as 0.492 mL/min/kg, the “half-life of diuresis decrease” value (3 nmol/kg i.p.) is reported as 3.7 h and the maximal diuresis (10 nmol/kg i.p.) is reported as 0.76 mL/min/kg. The “half-life of diuresis decrease” value (10 nmol/kg i.p.) was 2.4 h, the maximal diuresis (30 nmol/kg i.p.) was 1.18 mL/min/kg and the “half-life of diuresis decrease” value (30 nmol/kg i.p.) was 2.4 h. For the same substance, the maximal diuresis (100 nmol/kg i.p.) was 1.13 mL/min/kg, the “half-life of diuresis decrease” value (100 nmol/kg i.p.) was 1.2 h and the maximal diuresis (356 nmol/kg i.p.) was 1.32 mL/min/kg. The “fast half-life (T1/2α) of diuresis” value [1] was 1.2 h, the “slow half-life (T1/2β) of diuresis” value [1] was 27.3 h and the “k value of diuresis over time, first phase” value (356 nmol/kg i.p., modelled) was 0.3777. For the same substance, the “k value of diuresis over time, second phase” value (356 nmol/kg i.p., modelled) was 0.02326, the “diuresis and osmolality compared to control” value (single 1 nmol/kg i.p.) was “statistically unchanged” and the “Diuresis Average” value [2] was 0.039 mL/min/kg. For the same substance, the “Excretion Average” value [2] was 2206 µosm/h/kg, the “Osmolarity Averag” value [2] was 1158 mOsmol/kgH2O and the “Diuresis Average” value [3] was 0.0855 mL/min/kg. The “Excretion Average” value [3] was 2710 µosm/h/kg, the “Osmolarity Averag” value [3] was 503 mOsmol/kgH2O and the “Diuresis Average” value [4] was 0.0255 mL/min/kg. For the same substance, the “Excretion Average” value [4] was 3077 µosm/h/kg, the “Osmolarity Averag” value [4] was 2000 mOsmol/kgH2O and the “Diuresis Average” value [5] was 0.13 mL/min/kg. For the same substance, the “Excretion Average” value [5] was 2092 µosm/h/kg, the “Osmolarity Averag” value [5] was 273 mOsmol/kgH2O and the “Diuresis Average” value [6] was 0.0263 mL/min/kg. For the same substance, the “Excretion Average” value [6] was 2117 µosm/h/kg, the “Osmolarity Averag” value [6] was 1332 mOsmol/kgH2O and the “Diuresis Average” value [7] was 0.1742 mL/min/kg. The “Excretion Average” value [7] was 2280 µosm/h/kg, the “Osmolarity Averag” value [7] was 214 mOsmol/kgH2O and the “Diuresis Average” value [8] was 0.0375 mL/min/kg. For the same substance, the “Excretion Average” value [8] was 2064 µosm/h/kg, the “Osmolarity Averag” value [8] was 937 mOsmol/kgH2O and the “Diuresis Average” value [9] was 0.2138 mL/min/kg. For the same substance, the “Excretion Average” value [9] was 2046 µosm/h/kg, the “Osmolarity Averag” value [9] was 162 mOsmol/kgH2O and the “Diuresis Average” value [10] was 0.0457 mL/min/kg. For the same substance, the “Excretion Average” value [10] was 1930 µosm/h/kg, the “Osmolarity Averag” value [10] was 703 mOsmol/kgH2O and the “Diuresis Average” value [11] was 0.3492 mL/min/kg. The “Excretion Average” value [11] was 2658 µosm/h/kg, the “Osmolarity Averag” value [11] was 136 mOsmol/kgH2O and the “Diuresis Average” value [12] was 0.161 mL/min/kg. The “Excretion Average” value [12] was 2617 µosm/h/kg, the “Osmolarity Averag” value [12] was 283 mOsmol/kgH2O and the “Diuresis Average” value [13] was 0.1 mL/min/kg. The “Excretion Average” value [13] was 2617 µosm/h/kg, the “Osmolarity Averag” value [13] was 455 mOsmol/kgH2O and the “Diuresis Average” value [14] was 0.0627 mL/min/kg. The “Excretion Average” value [14] was 2838 µosm/h/kg and the “Osmolarity Averag” value [14] was 754 mOsmol/kgH2O.
